Laboratory results reported in ChEMBL document CHEMBL3039007, “Structure-based identification of OATP1B1/3 inhibitors” (Mol Pharmacol, 2013).

Assays:
[1] = biological target: T1, Solute carrier organic anion transporter family member 1B1 (Homo sapiens, UniProt Q9Y6L6); conditions: chinese hamster, cho, 10 µM
T1 sequence (Q9Y6L6 whole entry): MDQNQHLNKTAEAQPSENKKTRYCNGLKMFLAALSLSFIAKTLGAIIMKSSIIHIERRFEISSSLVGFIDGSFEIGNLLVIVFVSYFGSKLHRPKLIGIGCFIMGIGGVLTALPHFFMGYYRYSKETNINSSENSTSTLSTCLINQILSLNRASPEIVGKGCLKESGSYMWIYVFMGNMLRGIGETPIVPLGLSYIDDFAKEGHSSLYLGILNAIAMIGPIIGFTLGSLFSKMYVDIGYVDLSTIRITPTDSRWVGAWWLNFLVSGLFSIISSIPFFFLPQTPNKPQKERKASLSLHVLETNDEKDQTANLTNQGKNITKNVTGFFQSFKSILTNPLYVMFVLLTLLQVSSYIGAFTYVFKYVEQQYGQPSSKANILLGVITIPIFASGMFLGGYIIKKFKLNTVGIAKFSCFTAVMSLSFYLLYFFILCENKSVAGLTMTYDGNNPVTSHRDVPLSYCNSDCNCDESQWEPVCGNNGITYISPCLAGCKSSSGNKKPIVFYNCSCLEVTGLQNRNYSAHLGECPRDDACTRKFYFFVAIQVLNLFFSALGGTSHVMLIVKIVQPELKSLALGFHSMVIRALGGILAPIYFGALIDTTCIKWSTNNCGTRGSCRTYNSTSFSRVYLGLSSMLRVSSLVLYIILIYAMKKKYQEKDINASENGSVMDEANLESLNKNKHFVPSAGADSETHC

[2] = biological target: T2, Solute carrier organic anion transporter family member 1B3 (Homo sapiens, UniProt Q9NPD5); conditions: chinese hamster, cho, 10 µM
T2 sequence (Q9NPD5 whole entry): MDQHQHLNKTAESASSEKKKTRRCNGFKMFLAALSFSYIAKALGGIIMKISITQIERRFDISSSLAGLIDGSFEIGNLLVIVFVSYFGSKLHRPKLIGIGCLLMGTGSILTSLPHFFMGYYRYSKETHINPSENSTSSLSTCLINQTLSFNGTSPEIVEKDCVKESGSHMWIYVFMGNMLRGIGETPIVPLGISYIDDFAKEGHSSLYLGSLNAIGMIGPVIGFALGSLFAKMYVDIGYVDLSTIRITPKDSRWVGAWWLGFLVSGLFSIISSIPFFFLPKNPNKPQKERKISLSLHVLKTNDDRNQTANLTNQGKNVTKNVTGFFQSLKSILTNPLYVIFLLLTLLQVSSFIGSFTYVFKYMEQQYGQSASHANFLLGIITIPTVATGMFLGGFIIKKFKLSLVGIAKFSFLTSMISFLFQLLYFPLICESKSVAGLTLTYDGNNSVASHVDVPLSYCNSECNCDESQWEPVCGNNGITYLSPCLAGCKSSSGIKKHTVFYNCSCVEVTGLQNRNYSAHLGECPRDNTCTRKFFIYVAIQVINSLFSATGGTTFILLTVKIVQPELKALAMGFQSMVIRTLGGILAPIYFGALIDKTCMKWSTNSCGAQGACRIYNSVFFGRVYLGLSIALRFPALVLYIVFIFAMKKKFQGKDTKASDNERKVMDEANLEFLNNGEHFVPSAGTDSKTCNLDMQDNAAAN

Structure (SMILES)	residual activity [1]	residual activity [2]
CC1(C)[C@H](O)C[C@H](O)[C@@]2(C)[C@H]3CC[C@]4(C)[C@@H](c5ccoc5)OC(=O)[C@H]5O[C@]54[C@]3(C)[C@H](O)C[C@@H]12	48%	84.19%
CCC(=O)OCC(=O)[C@@]1(OC(=O)CC)[C@@H](C)C[C@H]2[C@@H]3CCC4=CC(=O)C=C[C@]4(C)[C@@]3(Cl)[C@@H](O)C[C@@]21C [BECLOMETHASONE DIPROPIONATE]	41.53%	14.78%
COc1cc(OC)cc(OC)c1 [1,3,5-TRIMETHOXYBENZENE]	90.48%	68.6%
O=c1cc(-c2ccc(O)cc2)oc2cc(O[C@@H]3O[C@H](CO)[C@@H](O)[C@H](O)[C@H]3O[C@@H]3OC[C@](O)(CO)[C@H]3O)cc(O)c12 [APIIN]	69.17%	141.5%
O=C1OC(=O)C2C3CCC(O3)C12 (configuration not stated)	106.4%	93.17%
O[C@@H]1[C@@H](O)[C@@H]2OC[C@@H](O2)[C@H]1O	105.1%	106%
C/C=C1\[C@H]2C=C(C)C[C@]1(N)c1ccc(=O)[nH]c1C2 [HUPERZINE A]	93.86%	101.3%
COC(=O)CC1C(C)(C)C(OC(C)=O)[C@@H]2[C@@H](OC(C)=O)[C@]34O[C@@]2(O)[C@]1(C)C3CC[C@]1(C)C4=CC(=O)O[C@H]1c1ccoc1 (some centres not stated) [XYLOCARPUS A]	22.54%	9.764%
C=C1C[C@H]2O[C@]2(C)CC[C@@H]2[C@@H]1CC2(C)C	54.1%	80.12%
CCN(CC)CCNc1ccc(CO)c2sc3ccccc3c(=O)c12 [HYCANTHONE]	79.76%	100.5%
CC(C)(Oc1ccc(Cl)cc1)C(=O)O [CLOFIBRIC ACID]	111.2%	99.14%
CN(C)CCCO[C@@H]1[C@H]2OC(C)(C)O[C@H]2O[C@@H]1[C@H](O)CO [AMIPRILOSE]	91.07%	95.1%
C[C@@H]1CCC[C@H](C)N1NC(=O)c1ccc(Cl)c(S(N)(=O)=O)c1 [CLOPAMIDE]	113.6%	107.3%
O=C(O)/C=C(\CC(=O)O)C(=O)O [ACONITIC ACID]	102.5%	88.62%
Cn1c(=O)c2c(ncn2CCO)n(C)c1=O [ETOFYLLINE]	64.41%	86.25%
OC[C@H]1O[C@@H](n2cnc3c(O)ncnc32)[C@H](O)[C@@H]1O [INOSINE]	110.7%	107.3%
C[C@@H]1C[C@H]2[C@@H]3CCC4=CC(=O)C=C[C@]4(C)[C@@]3(Cl)[C@@H](O)C[C@]2(C)[C@@]1(OC(=O)c1ccco1)C(=O)CCl [MOMETASONE FUROATE]	34.01%	25.64%
CC(=O)OCC(=O)[C@@]1(O)[C@H](OC(C)=O)C[C@H]2[C@@H]3CCC4=CC(=O)C=C[C@]4(C)[C@@]3(F)[C@@H](O)C[C@@]21C [TRIAMCINOLONE DIACETATE]	98.08%	104.9%
CC(=O)O[C@@H]1C[C@H]2C(C)(C)C(=O)CC[C@]2(C)[C@H]2CC[C@@]3(C)[C@H](c4ccoc4)OC(=O)[C@H]4O[C@]43[C@@]21C [DIHYDROGEDUNIN]	35.54%	62.45%
CCN(CCO)CCCC(C)Nc1ccnc2cc(Cl)ccc12.O=S(=O)(O)O (configuration not stated) [HYDROXYCHLOROQUINE SULFATE]	90.44%	90.84%
CCCCN(CC)c1c([N+](=O)[O-])cc(C(F)(F)F)cc1[N+](=O)[O-] [BENFLURALIN]	96.31%	100.4%
COc1cc2c(cc1-c1coc3c4c(c(OC)cc3c1=O)OC(C)(C)C=C4)OCO2 [ICHTHYNONE]	105.6%	118.8%
O=C(O)C1CC([C@@H]2CCCCN2)CN2CCCCC12 (some centres not stated) [APHYLLIC ACID]	83.2%	100.7%

Structure (SMILES)	residual activity [1]	residual activity [2]
CCCOc1ccccc1-c1nc2nn[nH]c2c(=O)[nH]1 [ZAPRINAST]	98.85%	86.99%
Cc1ncc([N+](=O)[O-])n1CCO [METRONIDAZOLE]	102.6%	98.27%
C[C@H]1[C@H]2CC[C@H]3[C@@H]4CC=C5C[C@@H](N(C)C)CC[C@]5(C)[C@H]4CC[C@]23CN1C [CONESSINE]	100.9%	111.5%
COc1c(Cl)c(C)c2c(c1Cl)OC(=O)c1c(C)c(Cl)c(OC)c(Cl)c1O2 [DIPLOICIN METHYL ETHER]	97.17%	103.5%
O=c1cc(-c2ccccc2)oc2cc(O)c(O)c(O)c12 [BAICALEIN]	91.06%	90.2%
CC(C)=CC1C(C(=O)OCc2cccc(Oc3ccccc3)c2)C1(C)C (configuration not stated) [PHENOTHRIN]	157.5%	107.3%
CC(=O)O[C@@H]1C[C@H]2C(C)(C)CCC(=O)[C@]2(C)[C@H]2CC[C@@]3(C)[C@H](c4ccoc4)OC(=O)[C@H]4O[C@]43[C@@]21C	67%	105.3%
O=C(O)[C@]1(O)C[C@@H](O)[C@@H](O)[C@H](O)C1 [QUINIC ACID]	95.08%	98.01%
CC(C)CCC[C@@H](C)[C@H]1CC[C@H]2[C@@H]3C(=O)C=C4C[C@@H](O)CC[C@]4(C)[C@H]3CC[C@]12C [7-OXOCHOLESTEROL]	96.87%	90.78%
CNC(=O)ON=C(C)SC [METHOMYL]	80.5%	109.3%
CC(=O)[C@H]1CC[C@H]2[C@@H]3CC[C@H]4C[C@H](O)CC[C@]4(C)[C@H]3CC[C@]12C [BREXANOLONE]	41.5%	89.68%
Cn1c(=O)c2c(ncn2CCCl)n(C)c1=O [7-CHLOROETHYLTHEOPHYLLINE]	90.03%	97.15%
CC(N)C(O)c1ccc(O)c(O)c1.Cl (configuration not stated) [NORDEFRIN HYDROCHLORIDE]	122.3%	103.4%
CCOC(=O)C1(O)Oc2cc(OC)cc(OC)c2C(=O)C1c1ccccc1 (configuration not stated) [2-ETHOXYCARBONYL-2-HYDROXY-5,7-DIMETHOXYISOFLAVANONE]	106.9%	104%
CC(C)N1C(=O)c2ccccc2NS1(=O)=O [BENTAZON]	109.9%	96.3%
Cc1cccc(Nc2ccncc2S(=O)(=O)NC(=O)NC(C)C)c1 [TORSEMIDE]	73.9%	73.29%
CC(C)c1c(O)ccc2c1CCC1[C@@](C)(C(=O)O)CCC[C@]21C (some centres not stated)	61.16%	80.85%
CC1CCc2cc(F)cc3c(=O)c(C(=O)O)cn1c23 (configuration not stated) [FLUMEQUINE]	74.99%	107%
N=C(NCCC[C@H](N)C(=O)O)N[N+](=O)[O-] [NITROARGININE]	113.4%	113.8%
COc1ccc(C2CC(=O)c3ccc(OC)cc3O2)cc1 (configuration not stated) [LIQUIRITIGENIN DIMETHYL ETHER]	104.2%	114.3%
C[C@@H]1C[C@H]2[C@@H]3C[C@H](F)C4=CC(=O)C=C[C@]4(C)[C@@]3(F)[C@@H](O)C[C@]2(C)[C@@]1(O)C(=O)CO [FLUMETHASONE]	84.89%	135.8%
CC(C(=O)O)c1ccc(-c2ccccc2)c(F)c1 (configuration not stated) [FLURBIPROFEN]	227%	98.28%
CC(C)=CC1C(CO)C1(C)C (configuration not stated) [CHRYSANTHEMYL ALCOHOL]	106.8%	105.2%
